# In US20220372066A1, “HUMAN SQUALAMINE DERIVATIVES (ENT-06), RELATED COMPOSITIONS COMPRISING THE SAME, AND METHOD OF USING THE SAME” (Enterin, Inc., priority 2019, published 2022):
# Legend:
# [1] = tested on: mice with constipation due to overexpression of human αS; details: orally administered; cited from earlier work
# [2] = biological target: sodium-hydrogen exchanger (“NHE-3”) (Oryctolagus cuniculus, UniProt P26432); details: Akhter, Nath et al. 1999; cited from earlier work
# [3] = tested on: mouse stomach tissues gene expression; experiment: Treatment induced gene expression in mouse stomach tissues, RNA-sequencing, differential expression by fold change (Example 3); type: in vivo; details: for Number of significant features, Down-regulated, fold change threshold 1.3× / Number of significant features, Down-regulated, fold change threshold 2× / Number of significant features, Down-regulated, fold change threshold 4× / Number of significant features, Down-regulated, fold change threshold 8× / Number of significant features, Down-regulated, fold change threshold 16× / Number of significant features, Down-regulated, fold change threshold Any / Number of significant features, Up-regulated, fold change threshold 1.3× / Number of significant features, Up-regulated, fold change threshold 2× / Number of significant features, Up-regulated, fold change threshold 4× / Number of significant features, Up-regulated, fold change threshold 8× / Number of significant features, Up-regulated, fold change threshold 16× / Number of significant features, Up-regulated, fold change threshold Any: stomach
# [4] = tested on: mouse stomach RNA transcriptome; experiment: RNAseq of stomach transcriptome in old mice after oral squalamine (Example 1); type: in vivo; details: oral dosing 14 days
# Experimental: The dosing schedule used to determine the effect of orally administered squalamine and ENT-02 (MSI-1436) on the GI tracts of young and old mice was as follows. Male C57B1/6 mice, aged 20 and 78 weeks, were obtained from Jackson labs. Animals were exposed to 12 hr light dark cycles and provided Teklad standard mouse diet and water ad lib.
# Animals were dosed once daily by oral gavage in the morning for a total of 14 days. Animals were fasted 3-4 hours prior to dosing and 1 hour following. The test article was dissolved in 0.5% hydroxypropylcellulose in water. On day 15 the animals were euthanized by C02 asphyxiation, necropsied, and tissues prepared for histology and RNAseq analysis.
# The GI tracts of the animals were sectioned into stomach, duodenum, jejunum, ileum, caecum, colon, and rectum. The tissues were then sent for histology, and the transcriptomes analyzed by RNAseq.
# [5] = tested on: murine stomach tissue gene expression profile; experiment: Congruence analysis of differentially expressed stomach genes, ENT-01 vs ENT-06; type: in vivo, mouse
# Description: Genes that were differentially expressed in response to ENT-01 treatment, as identified in this study, were compared to those that were associated with ENT-06 treatments, respectively. ENT-06 treatment-associated gene expression changes were identified previously. Across all contrasts at the relevant statistical thresholds used to identify significant features, there were ten or less genes that changed in expression upon both treatments (ENT-01 and ENT-06). Note that this included the gene expression changes associated with ageing.
# Congruence analysis was performed between the contrasts Specifically, the analysis compared the effects of human- or shark-origin compound analogues on murine stomach tissue gene expression profile as follows: ENT-01 was compared to ENT-06. Scatter plots, upset plots, venn diagrams, hypergeometric tests and Spearman rank correlation tests were employed to assess the level of overlap. […] Whereas the ENT-01 contrasts in this study defined significant genes using a cutoff of greater than four-fold change in expression.
# Congruence between these sets of genes was then assessed by comparing ENT-01-affected genes to those of ENT-06. […] The symbol U denotes the universe. Overlap was assessed between ENT-01 vs control (young) (202 genes) and ENT-06 vs untreated (young) (26 genes). 10 genes overlapped between the two sets when not considering direction of change. […] The Spearman rank correlation between the genes in the two sets was −0.1313.
# Congruence analysis for: ENT-01 vs ENT-06 (old) was also conducted. […] Overlap was assessed between ENT-01 vs control (old) (383 genes) and ENT-06 vs untreated (old) (55 genes). 1 genes overlapped between the two sets when not considering direction of change. This is no more than would be expected by chance (p=0.5057). The Spearman rank correlation between the genes in the two sets was 0.003217.
# [6] = cutoff greater than four-fold change in expression
# [7] = Old vs young mice, both treated
# [8] = treatment vs control (old mice)
# [9] = treatment vs control (young mice)
# Sequence of sodium-hydrogen exchanger (“NHE-3”) (P26432 30-832): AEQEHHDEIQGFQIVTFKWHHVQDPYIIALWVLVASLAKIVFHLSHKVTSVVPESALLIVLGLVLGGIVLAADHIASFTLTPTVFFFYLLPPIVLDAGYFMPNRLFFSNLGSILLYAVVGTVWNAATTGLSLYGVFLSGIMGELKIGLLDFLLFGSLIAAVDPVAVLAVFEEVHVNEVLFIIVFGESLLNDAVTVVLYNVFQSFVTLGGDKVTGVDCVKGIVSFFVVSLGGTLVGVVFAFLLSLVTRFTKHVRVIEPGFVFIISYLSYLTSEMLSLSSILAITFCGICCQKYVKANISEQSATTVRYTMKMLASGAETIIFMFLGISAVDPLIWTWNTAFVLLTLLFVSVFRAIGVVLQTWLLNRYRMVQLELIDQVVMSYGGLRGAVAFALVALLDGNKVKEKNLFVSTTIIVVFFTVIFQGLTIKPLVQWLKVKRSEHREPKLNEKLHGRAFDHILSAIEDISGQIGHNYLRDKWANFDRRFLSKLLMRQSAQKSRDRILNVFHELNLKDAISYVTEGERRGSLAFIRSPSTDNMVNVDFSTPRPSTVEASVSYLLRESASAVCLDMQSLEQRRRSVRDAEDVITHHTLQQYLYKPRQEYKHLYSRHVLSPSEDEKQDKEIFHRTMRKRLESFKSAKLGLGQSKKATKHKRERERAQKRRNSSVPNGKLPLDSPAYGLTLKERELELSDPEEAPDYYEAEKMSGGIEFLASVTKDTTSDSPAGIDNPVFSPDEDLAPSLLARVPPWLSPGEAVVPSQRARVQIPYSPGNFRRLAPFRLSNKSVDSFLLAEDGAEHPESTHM
smiles,measurement,setting,value
"CC(C)[C@@H](CC[C@@H](C)[C@H]1CC[C@H]2[C@@H]3[C@H](O)C[C@H]4C[C@@H](NCCCNCCCCN)CC[C@]4(C)[C@H]3CC[C@]12C)OS(=O)(=O)O (single isomer, unassigned) [ENT-01, squalamine]",gastro-intestinal motility,[1],stimulates gastro-intestinal motility
same,inhibition of NHE-3,[2],inhibit
same,overlap of genes downregulated in aged mice with genes up-regulated in response to treatment in old mice,[3]; hypergeometric P<0.0001,overlapped significantly
same,mRNA levels for all of the genes of Table 3 after treatment,[4],significant increase
same,"number of significant genes, treatment vs control (old)",[5]; [6],383 genes
same,"number of significant genes, treatment vs control (young)",[5]; [6],202 genes
"CC(C)[C@@H](CC[C@@H](C)[C@H]1CC[C@H]2[C@@H]3[C@H](O)C[C@H]4C[C@@H](NCCCNCCCCNCCCN)CC[C@]4(C)[C@H]3CC[C@]12C)OS(=O)(=O)O (single isomer, unassigned) [ENT-02 (MSI-1436), trodusquemine]","Number of significant features, Down-regulated, fold change threshold 1.3×",[3]; [7],1986
same,"Number of significant features, Down-regulated, fold change threshold 2×",[3]; [7],314
same,"Number of significant features, Down-regulated, fold change threshold 4×",[3]; [7],63
same,"Number of significant features, Down-regulated, fold change threshold 8×",[3]; [7],8
same,"Number of significant features, Down-regulated, fold change threshold 16×",[3]; [7],4
same,"Number of significant features, Down-regulated, fold change threshold Any",[3]; [7],7344
same,"Number of significant features, Up-regulated, fold change threshold 1.3×",[3]; [7],2644
same,"Number of significant features, Up-regulated, fold change threshold 2×",[3]; [7],676
same,"Number of significant features, Up-regulated, fold change threshold 4×",[3]; [7],190
same,"Number of significant features, Up-regulated, fold change threshold 8×",[3]; [7],78
same,"Number of significant features, Up-regulated, fold change threshold 16×",[3]; [7],39
same,"Number of significant features, Up-regulated, fold change threshold Any",[3]; [7],7669
same,"Number of significant features, Down-regulated, fold change threshold 1.3×",[3]; [8],1395
same,"Number of significant features, Down-regulated, fold change threshold 2×",[3]; [8],203
same,"Number of significant features, Down-regulated, fold change threshold 4×",[3]; [8],38
same,"Number of significant features, Down-regulated, fold change threshold 8×",[3]; [8],7
same,"Number of significant features, Down-regulated, fold change threshold 16×",[3]; [8],1
same,"Number of significant features, Down-regulated, fold change threshold Any",[3]; [8],7597
same,"Number of significant features, Up-regulated, fold change threshold 1.3×",[3]; [8],2109
same,"Number of significant features, Up-regulated, fold change threshold 2×",[3]; [8],657
same,"Number of significant features, Up-regulated, fold change threshold 4×",[3]; [8],298
same,"Number of significant features, Up-regulated, fold change threshold 8×",[3]; [8],139
same,"Number of significant features, Up-regulated, fold change threshold 16×",[3]; [8],42
same,"Number of significant features, Up-regulated, fold change threshold Any",[3]; [8],7416
same,"Number of significant features, Down-regulated, fold change threshold 1.3×",[3]; [9],2429
same,"Number of significant features, Down-regulated, fold change threshold 2×",[3]; [9],531
same,"Number of significant features, Down-regulated, fold change threshold 4×",[3]; [9],120
same,"Number of significant features, Down-regulated, fold change threshold 8×",[3]; [9],43
same,"Number of significant features, Down-regulated, fold change threshold 16×",[3]; [9],16
same,"Number of significant features, Down-regulated, fold change threshold Any",[3]; [9],7667
same,"Number of significant features, Up-regulated, fold change threshold 1.3×",[3]; [9],1860
same,"Number of significant features, Up-regulated, fold change threshold 2×",[3]; [9],232
same,"Number of significant features, Up-regulated, fold change threshold 4×",[3]; [9],30
same,"Number of significant features, Up-regulated, fold change threshold 8×",[3]; [9],7
same,"Number of significant features, Up-regulated, fold change threshold 16×",[3]; [9],1
same,"Number of significant features, Up-regulated, fold change threshold Any",[3]; [9],7346
"C[C@H](CCC[C@@H](C)[C@H]1CCC2C3C(CC[C@@]21C)[C@@]1(C)CC[C@H](NCCCNCCCCN)C[C@@H]1C[C@H]3O)C(=O)O (single isomer, unassigned) [ENT-06, 3-β-Spermidino-7α-hydroxy-5α-cholestanoic acid]",Spearman rank correlation between the genes in the ENT-01 and ENT-06 sets,[5]; old mice,0.003217
same,"overlap of genes down-regulated in ageing and up-regulated in treatment, ENT-01 vs ENT-06",[5]; old mice,did not overlap
same,"genes overlapping with ENT-01 vs control (old) set, not considering direction of change","[5]; old mice, p=0.5057",1 genes
same,"number of significant genes, treatment vs untreated (old)",[5]; threshold FDR-adjusted P<0.05,55 genes
same,"number of significant genes, treatment vs untreated (young)",[5]; threshold FDR-adjusted P<0.05,26 genes
same,"genes overlapping with ENT-01 vs control (young) set, not considering direction of change","[5]; young mice, p=1.721e−16",10 genes
same,Spearman rank correlation between the genes in the ENT-01 and ENT-06 sets,"[5]; young mice, p=5.678e−57",−0.1313
